Measurements: patent US20140080868A1, “Methods for Treating HCV” (priority 2012, published 2014)

Legend:
Format in all cases: cell-based
[1] = tested on: HCV replicon with NS5A from genotype 2a; experiment: Stable chimeric 1b-Con1 replicon with NS5A from genotype 2a; details: Hepatitis C virus, read-out: Mean EC50 ± Std. Dev.
[2] = tested on: HCV replicon genotype 1a-H77; experiment: Stable subgenomic replicon luciferase assay, genotype 1a-H77; details: Hepatitis C virus, luciferase reporter, 5% FBS, read-out: Mean EC50 ± Std. Dev.
[3] = tested on: HCV replicon with NS5A genotype 2a T24A variant; experiment: Transient chimeric replicon assay, genotype 2a T24A; details: Hepatitis C virus, read-out: Average EC50
Text: (§1) Transiently replicating chimeric replicons containing NS5A from genotype 2-6 wild types or replicons containing variants within NS5A were constructed in the 1b-Con1 background. These replicons also contained a firefly luciferase reporter gene. Variants were introduced by site-directed mutagenesis using the Change-IT Multiple Mutation Site Directed Mutagenesis Kit (USB). After the mutagenesis was confirmed by sequence analysis, the plasmids were linearized with Scat restriction enzyme. The TranscriptAid T7 High Yield Transcription Kit (Fermentas) was used to transcribe the HCV subgenomic RNA from the plasmids. The RNA was transfected via electroporation into a Huh-7 derived cell line as described (see Middleton et al. and Tripathi et al., supra) except that 3×10^6 cells were electroporated with 15 μg of template RNA and the 96 well plate was seeded with 7.5×10^3 cells per well. Four hours post-transfection, the wells from one plate were harvested for luciferase measurement. […] Luciferin solution (50 μl, Promega) was added to each well, and luciferase activity was measured with a Victor II luminometer (Perkin-Elmer). The percent inhibition of HCV RNA replication was calculated for each compound concentration and the EC50 value was calculated using nonlinear regression curve fitting to the 4-parameter logistic equation and GraphPad Prism 4 software.

[4] = tested on: HCV replicon with NS5A genotype 2b L28F variant; experiment: Transient chimeric replicon assay, genotype 2b L28F; details: Hepatitis C virus, read-out: Average EC50
Text: as §1

[5] = tested on: HCV replicon with NS5A genotype 2a wild type; experiment: Transient chimeric replicon assay, genotype 2a WT; details: Hepatitis C virus, read-out: Average EC50
Text: as §1

[6] = tested on: HCV replicon with NS5A genotype 6a T58N variant; experiment: Transient chimeric replicon assay, genotype 6a T58N; details: Hepatitis C virus, read-out: Average EC50
Text: as §1

[7] = tested on: HCV replicon with NS5A genotype 6a L31V variant; experiment: Transient chimeric replicon assay, genotype 6a L31V; details: Hepatitis C virus, read-out: Average EC50
Text: as §1

[8] = tested on: HCV replicon with NS5A from genotype 4a; experiment: Stable chimeric 1b-Con1 replicon with NS5A from genotype 4a; details: Hepatitis C virus, read-out: Mean EC50 ± Std. Dev.
[9] = tested on: HCV replicon with NS5A genotype 5a L31F variant; experiment: Transient chimeric replicon assay, genotype 5a L31F; details: Hepatitis C virus, read-out: Average EC50
Text: as §1

[10] = tested on: HCV replicon with NS5A genotype 5a L28I variant; experiment: Transient chimeric replicon assay, genotype 5a L28I; details: Hepatitis C virus, read-out: Average EC50
Text: as §1

[11] = tested on: HCV replicon with NS5A from genotype 2b; experiment: Stable chimeric 1b-Con1 replicon with NS5A from genotype 2b; details: Hepatitis C virus, read-out: Mean EC50 ± Std. Dev.
[12] = tested on: HCV replicon with NS5A genotype 2b wild type; experiment: Transient chimeric replicon assay, genotype 2b WT; details: Hepatitis C virus, read-out: Average EC50
Text: as §1

[13] = tested on: stable subgenomic replicons with NS5A from HCV genotype 1a, 1b, 2a, 2b, 3a, 4a, 5a, and 6a; experiment: Stable subgenomic replicons, genotype panel (summary statement); details: Hepatitis C virus, read-out: EC50 values against stable subgenomic replicons with NS5A from a broad range of HCV genotypes
[14] = tested on: HCV replicon with NS5A genotype 6a wild type; experiment: Transient chimeric replicon assay, genotype 6a WT; details: Hepatitis C virus, read-out: Average EC50
Text: as §1

[15] = tested on: HCV replicon with NS5A genotype 3a wild type; experiment: Transient chimeric replicon assay, genotype 3a WT; details: Hepatitis C virus, read-out: Average EC50
Text: as §1

[16] = tested on: HCV replicon with NS5A from genotype 3a; experiment: Stable chimeric 1b-Con1 replicon with NS5A from genotype 3a; details: Hepatitis C virus, read-out: Mean EC50 ± Std. Dev.
[17] = tested on: HCV replicon genotype 1b-Con1; experiment: Stable subgenomic replicon luciferase assay, genotype 1b-Con1; details: Hepatitis C virus, luciferase reporter, 5% FBS, read-out: Mean EC50 ± Std. Dev.
[18] = tested on: HCV replicon with NS5A genotype 5a wild type; experiment: Transient chimeric replicon assay, genotype 5a WT; details: Hepatitis C virus, read-out: Average EC50
Text: as §1

[19] = tested on: HCV replicon with NS5A genotype 6a T58A variant; experiment: Transient chimeric replicon assay, genotype 6a T58A; details: Hepatitis C virus, read-out: Average EC50
Text: as §1

[20] = tested on: HCV replicon with NS5A from genotype 5a; experiment: Stable chimeric 1b-Con1 replicon with NS5A from genotype 5a; details: Hepatitis C virus, read-out: Mean EC50 ± Std. Dev.
[21] = tested on: HCV replicon with NS5A from genotype 6a; experiment: Stable chimeric 1b-Con1 replicon with NS5A from genotype 6a; details: Hepatitis C virus, read-out: Mean EC50 ± Std. Dev.
[22] = tested on: HCV variants that are resistant to other NS5A inhibitors; experiment: Transient subgenomic replicon assays, resistant variant panel (summary statement); details: Hepatitis C virus, read-out: EC50 values against HCV variants resistant to other NS5A inhibitors, transient subgenomic replicon assays
Text: as §1

[23] = tested on: HCV replicon with NS5A genotype 3a Y93H variant; experiment: Transient chimeric replicon assay, genotype 3a Y93H; details: Hepatitis C virus, read-out: Average EC50
Text: as §1

[24] = tested on: HCV replicon with NS5A genotype 4a L30H variant; experiment: Transient chimeric replicon assay, genotype 4a L30H; details: Hepatitis C virus, read-out: Average EC50
Text: as §1

[25] = tested on: HCV replicon with NS5A genotype 5a L31V variant; experiment: Transient chimeric replicon assay, genotype 5a L31V; details: Hepatitis C virus, read-out: Average EC50
Text: as §1

[26] = tested on: HCV replicon with NS5A genotype 4a L28V variant; experiment: Transient chimeric replicon assay, genotype 4a L28V; details: Hepatitis C virus, read-out: Average EC50
Text: as §1

[27] = tested on: HCV replicon with NS5A genotype 2b L31V variant; experiment: Transient chimeric replicon assay, genotype 2b L31V; details: Hepatitis C virus, read-out: Average EC50
Text: as §1

[28] = tested on: HCV replicon with NS5A genotype 3a M28T variant; experiment: Transient chimeric replicon assay, genotype 3a M28T; details: Hepatitis C virus, read-out: Average EC50
Text: as §1

| SMILES | EC50 [3] [nM] | EC50 [4] [nM] | EC50 [5] [nM] | EC50 [6] [nM] | EC50 [7] [nM] | EC50 [9] [nM] | EC50 [10] [nM] | EC50 [12] [nM] | EC50 [14] [nM] | EC50 [15] [nM] | EC50 [19] [nM] | EC50 [23] [nM] | other results |
| --- | --- | --- | --- | --- | --- | --- | --- | --- | --- | --- | --- | --- | --- |
| COC(=O)N[C@H](C(=O)N1CCC[C@H]1c1nc2cc([C@H]3CC[C@H](c4cc5nc([C@@H]6CCCN6C(=O)[C@@H](NC(=O)OC)[C@@H](C)OC)[nH]c5cc4F)N3c3cc(F)c(N4CCC(c5ccc(F)cc5)CC4)c(F)c3)c(F)cc2[nH]1)[C@@H](C)OC [Compound 1, methyl {(2S,3R)-1-[(2S)-2-{5-[(2R,5R)-1-{3,5-difluoro-4-[4-(4-fluorophenyl)piperidin-1-yl]phenyl}-5-(6-fluoro-2-{(2S)-1-[N-(methoxycarbonyl)-O-methyl-L-threonyl]pyrrolidin-2-yl}-1H-benzimidazol-5-yl)pyrrolidin-2-yl]-6-fluoro-1H-benzimidazol-2-yl}pyrrolidin-1-yl]-3-methoxy-1-oxobutan-2-yl}carbamate] | 0.0013 | 0.0011 | 0.0013 | 0.0025 | 0.001 | 0.0019 | 0.001 | 0.001 | 0.0014 | 0.0018 | 0.0015 | 0.0043 | EC50 [1]: 0.0023 ± 0.0007 nM; EC50 [2]: 0.0018 ± 0.0009 nM; EC50 [8]: 0.0019 ± 0.0006 nM; EC50 [11]: 0.0019 ± 0.0006 nM; EC50 [13]: < 10000 nM; EC50 [16]: 0.0021 ± 0.0007 nM; EC50 [17]: 0.0043 ± 0.0017 nM; EC50 [18]: 0.0011 nM; EC50 [20]: 0.0014 ± 0.0004 nM; EC50 [21]: 0.0028 ± 0.0007 nM; EC50 [22]: < 5000 nM; EC50 [24]: 0.001 nM |
| COC(=O)N[C@H](C(=O)N1CCC[C@H]1C(=O)Nc1ccc([C@@H]2CC[C@@H](c3ccc(NC(=O)[C@@H]4CCCN4C(=O)[C@@H](NC(=O)OC)C(C)C)cc3)N2c2ccc(C(C)(C)C)cc2)cc1)C(C)C [reference compound, reference compound] | 0.092 | 0.039 | 0.0034 | 8.47 | 5.04 | 0.263 | 0.072 | 0.0011 | 0.08 | 0.0072 | 1.15 | > 100 | EC50 [25]: 0.221 nM; EC50 [26]: 0.0053 nM; EC50 [27]: 0.427 nM; EC50 [28]: 3.03 nM |
